Test results taken from patent publication US7989649B2, “Tumor imaging compounds” (Emory University, priority 2002, dated 2011).

Legend:
9 L gliosarcoma tumor = experiment: Biodistribution in Fischer rats with intracranial 9 L gliosarcoma tumor; format: in vivo; details: for Tissue distribution of radioactivity, Blood / Tissue distribution of radioactivity, Bone / Tissue distribution of radioactivity, Heart / Tissue distribution of radioactivity, Kidney / Tissue distribution of radioactivity, Liver / Tissue distribution of radioactivity, Lung / Tissue distribution of radioactivity, Muscle / Tissue distribution of radioactivity, Pancreas / Tissue distribution of radioactivity, Spleen / Tissue distribution of radioactivity, Testis / Tissue distribution of radioactivity, Tumor / Tissue distribution of radioactivity, Brain: tumor-bearing Fischer rats; for Tissue distribution of radioactivity, Brain: normal brain contralateral to tumor
Experimental: Tumor induction and animal preparation. All animal experiments were carried out under humane conditions and were approved by the Institutional Animal Use and Care Committee (IUCAC) at Emory University. Rat 9 L gliosarcoma cells were implanted into the brains of male Fischer rats as described previously [Shoup, T M et al. (1999), J. Nucl. Med. 40:331-338]. Briefly, anesthetized rats placed in a stereotactic head holder were injected with a suspension of 4×10^4 rat 9 L gliosarcoma cells (1×10^7 per mL) in a location 3 mm right of midline and 1 mm anterior to the bregma at a depth of 5 mm deep to the outer table. The injection was performed over the course of 2 minutes, and the needle was withdrawn over the course of 1 minute to minimize the backflow of tumor cells. The burr hole and scalp incision were closed, and the animals were returned to their original colony after recovering from the procedure. Intracranial tumors developed that produced weight loss, apathy and hunched posture in the tumor-bearing rats, and the animals were used at 17-19 days after implantation. Of the 30 animals implanted with tumor cells, 25 developed tumors visible to the naked eye upon dissection and were used in the study.
The tissue distribution of radioactivity was also determined in tumor-bearing Fischer 344 rats following intravenous injection of ˜35 μCi of [^18F]5a or [^18F]5b in 0.3 mL of sterile water. The procedure was similar to that already described for normal rats with the following modifications. The tail vein injections were performed in awake animals using a RTV-190 rodent restraint device (Braintree Scientific) to avoid mortality accompanying anesthesia in the presence of an intracranial mass. The animals were killed at 5 minutes, 60 minutes or 120 minutes post-injection. The same tissues were assayed as in normal rats with the addition of the tumor tissue, and the corresponding region of brain contralateral to the tumor was excised and used for comparison. The uptake in the tumor and contralateral brain at each time point was compared via a two-tailed t-test for paired observations (GraphPad Prism software package).

[1] = Rodent biodistribution study in normal Fischer rats; format: in vivo, rat; details: normal Fischer rats, 5 min after injection
Experimental: Rodent biodistribution studies. The same procedures were used to evaluate [^18F]5a and [^18F]5b separately in rodents. The tissue distribution of radioactivity was determined in 16 normal male Fischer 344 rats (200-250 g) after intravenous injection of ˜85 μCi of [^18F]5a or [^18F]5b in 0.3 mL of sterile water. The animals were allowed food and water ad libitum before the experiment. Following anesthesia induced with an intramuscular injection of 0.1 mL/100 g of a 1:1 ketamine ([…]):xylazine (20 mg/mL) solution, the radiolabeled amino acid was injected into the rats via tail vein catheters. Groups of four rats were killed at 5 minutes, 30 minutes, 60 minutes and 120 minutes after injection of the dose. The animals were dissected, and selected tissues were weighed and counted along with dose standards in a Packard Cobra II Auto-Gamma Counter. The raw counts were decay corrected, and the counts were normalized as the percent of total injected dose per gram of tissue (% ID/g). A comparison of the uptake of activity in the tissues at each time point was analyzed using a 1-way ANOVA (GraphPad Prism software package).

[2] = 60 min after injection, listed as [^18F]FAMP (5a)
[3] = 120 min after injection, listed as [^18F]FAMP (5a)

Compound: CC(N)(CF)C(=O)O (racemic) [[^18F]5a, 2-amino-3-fluoro-2-methylpropanoic acid]
- Tissue distribution of radioactivity, Blood (9 L gliosarcoma tumor; 5 min after injection): 0.72 ± 0.05 percent dose per gram
- Tissue distribution of radioactivity, Bone (9 L gliosarcoma tumor; 5 min after injection): 0.38 ± 0.04 percent dose per gram
- Tissue distribution of radioactivity, Heart (9 L gliosarcoma tumor; 5 min after injection): 0.40 ± 0.04 percent dose per gram
- Tissue distribution of radioactivity, Kidney (9 L gliosarcoma tumor; 5 min after injection): 8.66 ± 1.27 percent dose per gram
- Tissue distribution of radioactivity, Liver (9 L gliosarcoma tumor; 5 min after injection): 0.77 ± 0.22 percent dose per gram
- Tissue distribution of radioactivity, Lung (9 L gliosarcoma tumor; 5 min after injection): 0.84 ± 0.03 percent dose per gram
- Tissue distribution of radioactivity, Muscle (9 L gliosarcoma tumor; 5 min after injection): 0.39 ± 0.02 percent dose per gram
- Tissue distribution of radioactivity, Pancreas (9 L gliosarcoma tumor; 5 min after injection): 5.31 ± 0.68 percent dose per gram
- Tissue distribution of radioactivity, Spleen (9 L gliosarcoma tumor; 5 min after injection): 0.72 ± 0.06 percent dose per gram
- Tissue distribution of radioactivity, Testis (9 L gliosarcoma tumor; 5 min after injection): 0.22 ± 0.02 percent dose per gram
- Tissue distribution of radioactivity, Tumor (9 L gliosarcoma tumor; 5 min after injection): 0.91 percent dose per gram
- Tissue distribution of radioactivity, Tumor (9 L gliosarcoma tumor; 5 min after injection, listed as [^18F]FAMP (5a)): 0.91 ± 0.05 percent dose per gram
- Tissue distribution of radioactivity, Blood (9 L gliosarcoma tumor; 60 min after injection): 0.26 ± 0.03 percent dose per gram
- Tissue distribution of radioactivity, Bone (9 L gliosarcoma tumor; 60 min after injection): 0.25 ± 0.05 percent dose per gram
- Tissue distribution of radioactivity, Heart (9 L gliosarcoma tumor; 60 min after injection): 0.33 ± 0.06 percent dose per gram
- Tissue distribution of radioactivity, Kidney (9 L gliosarcoma tumor; 60 min after injection): 6.20 ± 1.45 percent dose per gram
- Tissue distribution of radioactivity, Liver (9 L gliosarcoma tumor; 60 min after injection): 0.66 ± 0.16 percent dose per gram
- Tissue distribution of radioactivity, Lung (9 L gliosarcoma tumor; 60 min after injection): 0.38 ± 0.04 percent dose per gram
- Tissue distribution of radioactivity, Muscle (9 L gliosarcoma tumor; 60 min after injection): 0.31 ± 0.03 percent dose per gram
- Tissue distribution of radioactivity, Pancreas (9 L gliosarcoma tumor; 60 min after injection): 2.86 ± 0.34 percent dose per gram
- Tissue distribution of radioactivity, Spleen (9 L gliosarcoma tumor; 60 min after injection): 0.55 ± 0.08 percent dose per gram
- Tissue distribution of radioactivity, Testis (9 L gliosarcoma tumor; 60 min after injection): 0.14 ± 0.02 percent dose per gram
- Tissue distribution of radioactivity, Tumor (9 L gliosarcoma tumor; 60 min after injection): 1.96 percent dose per gram
- Tissue distribution of radioactivity, Tumor (9 L gliosarcoma tumor; [2]): 1.96 ± 0.10 percent dose per gram
- Tissue distribution of radioactivity, Blood (9 L gliosarcoma tumor; 120 min after injection): 0.16 ± 0.01 percent dose per gram
- Tissue distribution of radioactivity, Bone (9 L gliosarcoma tumor; 120 min after injection): 0.16 ± 0.01 percent dose per gram
- Tissue distribution of radioactivity, Heart (9 L gliosarcoma tumor; 120 min after injection): 0.22 ± 0.02 percent dose per gram
- Tissue distribution of radioactivity, Kidney (9 L gliosarcoma tumor; 120 min after injection): 3.64 ± 0.26 percent dose per gram
- Tissue distribution of radioactivity, Liver (9 L gliosarcoma tumor; 120 min after injection): 0.25 ± 0.02 percent dose per gram
- Tissue distribution of radioactivity, Lung (9 L gliosarcoma tumor; 120 min after injection): 0.24 ± 0.03 percent dose per gram
- Tissue distribution of radioactivity, Muscle (9 L gliosarcoma tumor; 120 min after injection): 0.21 ± 0.01 percent dose per gram
- Tissue distribution of radioactivity, Pancreas (9 L gliosarcoma tumor; 120 min after injection): 1.42 ± 0.17 percent dose per gram
- Tissue distribution of radioactivity, Spleen (9 L gliosarcoma tumor; 120 min after injection): 0.32 ± 0.02 percent dose per gram
- Tissue distribution of radioactivity, Testis (9 L gliosarcoma tumor; 120 min after injection): 0.11 ± 0.003 percent dose per gram
- Tissue distribution of radioactivity, Tumor (9 L gliosarcoma tumor; 120 min after injection): 1.87 percent dose per gram
- Tissue distribution of radioactivity, Tumor (9 L gliosarcoma tumor; [3]): 1.87 ± 0.2 percent dose per gram
- Tissue distribution of radioactivity, Brain (9 L gliosarcoma tumor; 5 min after injection): 0.035 ± 0.002 percent dose per gram
- Tissue distribution of radioactivity, Brain (9 L gliosarcoma tumor; 60 min after injection): 0.054 percent dose per gram
- Tissue distribution of radioactivity, Brain (9 L gliosarcoma tumor; [2]): 0.054 ± 0.01 percent dose per gram
- Tissue distribution of radioactivity, Brain (9 L gliosarcoma tumor; 120 min after injection): 0.050 percent dose per gram
- Tissue distribution of radioactivity, Brain (9 L gliosarcoma tumor; [3]): 0.050 ± 0.004 percent dose per gram
- uptake in normal brain tissue contralateral to the tumor (9 L gliosarcoma tumor; tumor-bearing rats, each time point (5, 60, 120 minutes)): approximately 0.05 % ID/g
- Tissue distribution of radioactivity, Blood [1]: 0.53 ± 0.03 percent dose per gram
- Tissue distribution of radioactivity, Bone [1]: 0.27 ± 0.005 percent dose per gram
- Tissue distribution of radioactivity, Brain [1]: 0.04 ± 0.003 percent dose per gram
- Tissue distribution of radioactivity, Heart [1]: 0.29 ± 0.012 percent dose per gram
- Tissue distribution of radioactivity, Kidney [1]: 6.36 percent dose per gram
